Data as given in patent US4696920A, “Certain 2-substituted 1,3-propylidenediphosphonate derivatives, pharmaceutical compositions containing them and their use as antihypertensive agents” (priority 1984, dated 1987).

Legend:
[1] = test system: mean blood pressure in rat; assay: Acute intravenous hypotensive activity in anesthetized rats; type: in vivo, rat (male Wistar); conditions: Rattus norvegicus, iv, read-out: Decrease in mean blood pressure (% pretest)
Experimental: Male Wistar rats were anesthetized with Pentobarbital (Nembutal, 60 mg/kg i.p.) and heparinized (5 mg/kg i.p.). After tracheotomy the right carotid was cannulated (catheter PE 50); blood pressure was measured with a pressure transducer (Statham P 23 db) and recorded on a polygraph (Beckman).
Animals received 0.5 and 1.5 mg/kg of the test compounds. Less than 100 μl of test compounds dissolved in 0.9% saline were injected in the jugular vein. Highly water insoluble compounds were suspended in 2% Tween-80. Injection of the vehicle alone had no detectable hypotensive effect.
Results presented are expressed as percent decrease in initial mean blood pressure (Mean±SEM).

[2] = test system: calcium channel binding site for [^3 H]-Nitrendipine (rat brain membranes); assay: [^3 H]-Nitrendipine binding to rat brain membranes; design: species or system rat (male Wistar); conditions: Table 1a; for Specifically bound [^3 H]-Nitrendipine % of control value: compound concentration 1.0 μM; for Bound ^3 H at 1.0 μM / Bound ^3 H at 0.1 μM: ratio of [^3 H]-Nitrendipine bound at 1.0 and 0.1 μM compound
Experimental: (§1) Diltiazem hydrochloride was a generous gift from Goedecke A. G.
Suitable dilutions were made in 50 mM Tris-HCl buffer (pH 7.4) containing 150 mM NaCl and 1 mM CaCl2. The ethanol concentration in the final assay never exceeded 0.1%.
(§2) The purity of the radioligand and of the various agents tested was monitored by thin layer chromatography on silica gel plates.
(§3) The following procedure was adapted from Bellemann et al (Proc. Nat. Acad. Sci. 80, 2356, 1983), and Gould et al (Proc. Nat. Acad. Sci. 79, 3656, 1982).
(§4) Adult male Wistar rats weighing 250-300 g were anesthetized with carbon dioxide prior to decapitation. The brain was removed then immersed in ice-cold 0.32M sucrose and washed 2-3 times with fresh solution. Cerebral cortex was minced and homogenized (Potter-Elvehjem homogenizer) in 10 volumes of ice-cold sucrose solution. The homogenate was centrifuged (4° C.) at 1000×g for 15 minutes. The resulting supernatant was then centrifuged at 90000×g (30 minutes) and the pellet was washed twice with 20 ml ice-cold 50 mM Tris-HCl pH 7.4.
(§5) The final pellet was resuspended in 50 mM Tris-HCl pH 7.4/150 mM NaCl/1 mM CaCl2 to give a protein concentration of 4 mg/ml.
(§6) The membrane suspension was kept on ice until used. Binding assays were performed in subdued light to prevent dihydropyridine breakdown. Membrane protein (400 μg/tube) was incubated in 50 mM Tris-HCl buffer (pH 7.4)/150 mM NaCl/1 mM CaCl2 with the indicated concentrations of radioligand and test compounds or known calcium antagonists, in a total volume of 2 ml. After the indicated time intervals, the reaction was terminated by rapid filtration through Whatman GF/B glass fiber filters (2.4 cm diameter) on a Millipore filter holder. The assay tube was rinsed with 2 ml ice-cold 50 mM Tris-HCl pH (7.4) and the precipitate was further washed with 2×5 ml of the same buffer.
(§7) Filters were dried under a heat lamp and were extracted with 10 ml of liquid scintillation cocktail (Toluene/Triton X-100, 2/1 containing 4 g Omnifluor/1) prior to tritium determination at 48% counting efficiency.
(§8) Assays were performed in duplicate or triplicate.
(§9) Data were expressed as percent specific [^3 H]-Nitrendipine binding relative to the established control value.
(§10) Compound activity in the [^3 H]-Nitrendipine binding assay was evaluated by using the following criteria:
(§11) 1. [^3 H]-Nitrendipine binding at 1.0 μM compound final concentration was either below 95% or above 105% of the control value determined in absence of compound.
2. […] This ratio is indicative of a dose response relationship within the compound concentration range tested, when the value differs appreciably from 1.0.

[3] = test system: rat trachea contraction induced by KCl depolarization; assay: KCl-induced rat trachea contraction; design: species or system rat (male SHR, Okamoto-Aoki); conditions: for activity at 1 µM: Rattus norvegicus, 40 min, read-out: Contraction (% max.); for activity on KCl-induced trachea contraction (in words): final concentration 1.0 μM
Experimental: Spontaneously hypertensive male rats (SHR) Okamoto-Aoki Strain, weighing 300-400 g were used in this study. They were killed by bleeding after Pentobarbital anesthesia (Nembutal, Abbott Co, 40 mg/kg). Their entire trachea was quickly removed and dissected free of fat and connective tissue in Krebs-Ringer solution. A strip (4 mm×40 mm), obtained by spirally cutting the trachea, was immediately suspended in a 50 ml Krebs-Ringer solution and continuously bubbled with a O2 /CO2 (95/5) mixture. Bath temperature was maintained at 37±1° C. The composition (mM) of the Krebs-Ringer solution modified by Nghiem, was as follows: NaCl, (118.0); KCl, (4.7); CaCl2, (2.5); MgCl2, (1.18); NaHCO3, (12.5); KH2 P04, (1.18); glucose, (5.5) in bidistilled water (pH 7.4). Each strip was equilibrated under initial tension (1.5-2 g) for 1-2 hours and the bath solution changed every 30 min. A contractile or relaxant response was isometrically measured with a force-displacement transducer (Ugo-Basile) and recorded on a polygraph (Beckman).
After equilibration, KCl was added to the bath at 65 mM final concentration. This concentration produced maximum trachea contraction. Under these conditions, a plateau phase showing a tonic sustained contraction was reached within 30 minutes. Drugs were added 30 minutes after the plateau phase has been reached (final concentration=1.0 μM). […] Recordings of the residual trachea contraction were made 40 minutes after drug addition to the bathing fluid. The initial KCl induced contraction was taken as the maximum KCl response (100%). Results were expressed as % of maximal contraction. Nifedipine, Prenylamine, Flunarizine and Diltiazem were used as reference standards to validate this assay.
All 1,3-diphosphonates and drugs were dissolved in saline (0.9% NaCl) except when water insoluble, then the compounds were dissolved in 2% ethanol. The final concentration of ethanol used has been shown not to interfere with the assay.
Results are expressed as mean values±SEM, the Student's t-test was used for statistical analysis.

[4] = test system: [^3 H]-PN-200 110 (dihydropyridine) binding site of calcium channel, rat brain membranes; assay: [^3 H]-PN-200 110 binding to rat brain membranes; design: species or system rat (male Wistar); conditions: for Specifically bound [^3 H]-PN-200 110 % of control value: compound concentration 1.0 μM; for Specifically bound [^3 H]-PN-200 110 % of control value / Bound ^3 H at 1.0 μM / Bound ^3 H at 0.1 μM: Table 1b; for Bound ^3 H at 1.0 μM / Bound ^3 H at 0.1 μM: ratio of [^3 H]-PN-200 110 bound at 1.0 and 0.1 μM compound
Experimental: as §1
Water insoluble compounds were dissolved in absolute ethanol to give 10 mM or 2.5 mM stock solutions. Suitable dilutions were made in 50 mM Tris-HCl buffer (pH 7.4) containing 150 mM NaCl and 1 mM CaCl2. The ethanol concentration in the final assay never exceeded 0.1%.
as §2, §3, §4, §5, §6, §7, §8, §9, §10, §11
2. The ratio obtained by dividing the amount of specifically found [^3 H]-Nitrendipine at 1.0 μM compound final concentration by the value obtained at 0.1 μM test compound, was smaller than 0.9 or greater than 1.1. This ratio is indicative of a dose response relationship within the compound concentration range tested, when the value differs appreciably from 1.0.
Note: In some experiments [^3 H]-PN200 110, a new and commercially available specific dihydropyridine was used instead of [^3 H]-Nitrendipine.

Row | SMILES | Specifically bound [^3 H]-Nitrendipine % of control value [2] | Bound ^3 H at 1.0 μM / Bound ^3 H at 0.1 μM [2] | inhibition in vivo at 0.5 mg/kg [1] [%] | Specifically bound [^3 H]-PN-200 110 % of control value [4] | Bound ^3 H at 1.0 μM / Bound ^3 H at 0.1 μM [4] | other results
1 | C[C@H](CS)C(=O)N1CCC[C@H]1C(=O)O [Captopril, reference compound] | – | – | – | – | – | inhibition in vivo at 1 mg/kg [1]: 0%
2 | CCOP(=O)(CC(Cc1ccccc1)CP(=O)(OCC)OCC)OCC [Compound 25, Tetraethyl 2-benzyl-1,3-propylidenediphosphonate] | 100 % of control value | 1.060 | 23.2 ± 2.2 | – | – | activity at 1 µM [3]: 53 ± 2.5%; activity on KCl-induced trachea contraction (in words) [3]: potent pharmacological activity; inhibition in vivo at 1.5 mg/kg [1]: 41.4 ± 1%
3 | CCOP(=O)(CC(CCc1ccccc1)CP(=O)(OCC)OCC)OCC [Compound 26] | 89 % of control value | 1.018 | 18.1 ± 3 | – | – | inhibition in vivo at 1.5 mg/kg [1]: 41.6 ± 1.3%
4 | CCOP(=O)(CC(CCCc1ccccc1)CP(=O)(OCC)OCC)OCC [Compound 27] | 95 % of control value | 0.982 | 25.6 ± 2.2 | – | – | inhibition in vivo at 1.5 mg/kg [1]: 35 ± 4.7%
5 | CCOP(=O)(CC(Cc1ccc(Cl)cc1)CP(=O)(OCC)OCC)OCC [Compound 30] | 99 % of control value | 1.003 | 17 | – | – | activity at 1 µM [3]: 90%; inhibition in vivo at 1.5 mg/kg [1]: 34.4 ± 5.1%
6 | CCOP(=O)(CC(CCOc1ccccc1)CP(=O)(OCC)OCC)OCC [Compound 33] | – | – | 13.2 | – | – | inhibition in vivo at 1.5 mg/kg [1]: 16 ± 0.6%
7 | CCOP(=O)(CC(Cc1cc(OC)c(OC)c(OC)c1)CP(=O)(OCC)OCC)OCC [Compound 36] | 100 % of control value | 0.966 | 39.9 ± 1.6 | – | – | –
8 | CCCOP(=O)(CC(CCOc1ccccc1)CP(=O)(OCCC)OCCC)OCCC [Compound 52] | – | – | – | 9 % of control value | 0.227 | –
9 | CCCCOP(=O)(CC(CCOc1cc(C)ccc1C)CP(=O)(OCCCC)OCCCC)OCCCC [Compound 77] | – | – | – | 19 % of control value | 0.337 | –
10 | CCCCOP(=O)(CC(CCCc1ccc([N+](=O)[O-])cc1[N+](=O)[O-])CP(=O)(OCCCC)OCCCC)OCCCC [Compound 98] | – | – | – | 19 % of control value | 0.780 | –
11 | CCCCOP(=O)(CC(Cc1cc2c(cc1Cl)OCO2)CP(=O)(OCCCC)OCCCC)OCCCC [Compound 99] | – | – | – | 56 % of control value | 0.627 | –
12 | CCCCOP(=O)(CC(CCOc1ccc(-c2ccccc2)cc1)CP(=O)(OCCCC)OCCCC)OCCCC [Compound 100] | – | – | – | 38 % of control value | 0.504 | –
13 | CCCCOP(=O)(CC(Cc1cnc(C)c2c1COC(C)(C)O2)CP(=O)(OCCCC)OCCCC)OCCCC [Compound 101] | – | – | – | 47 % of control value | 0.527 | –
14 | CCCCOP(=O)(CC(Cc1cnc(C)c(O)c1CO)CP(=O)(OCCCC)OCCCC)OCCCC [Compound 102, Tetrabutyl 2-[5-(3-hydroxy-4-hydroxymethyl-2-methyl)pyridylmethyl]1,3-propylidenediphosphonate] | – | – | – | 89 % of control value | 0.925 | –
15 | CCCCOP(=O)(CC(Cc1ccc(CN2CCN(c3ccccc3)CC2)cc1)CP(=O)(OCCCC)OCCCC)OCCCC [Compound 104] | – | – | – | 59 % of control value | 0.687 | –
16 | CCCCOP(=O)(CC(CCCC1(C)OCCO1)CP(=O)(OCCCC)OCCCC)OCCCC [Compound 106] | – | – | – | 42 % of control value | 0.570 | potency in [^3 H]-PN200 110 binding (in words) ([4]; text on Table 1b): as potent as Nifedipine
17 | C=CCCOP(=O)(CC(CCOc1ccccc1)CP(=O)(OCCC=C)OCCC=C)OCCC=C [Compound 110] | – | – | – | 13 % of control value | 0.294 | –
18 | CCCCCOP(=O)(CC(CCCc1ccccc1)CP(=O)(OCC)OCCCCC)OCC (centres unmarked) [Compound 117, Bis(ethyl, pentyl) 2-(3-phenylpropyl)-1,3-propylidenediphosphonate] | 79 % of control value | 0.950 | – | – | – | modulation of [^3 H]-Nitrendipine binding (in words) [2]: strong inhibitors; activity at 1 µM [3]: 60 ± 4%; activity on KCl-induced trachea contraction (in words) [3]: potent pharmacological activity
19 | C[C@](N)(Cc1ccc(O)c(O)c1)C(=O)O [Methyl Dopa, reference compound] | – | – | – | – | – | inhibition in vivo at 1 mg/kg [1]: 0%
20 | CC(C)NCC(O)COc1cccc2ccccc12 (centres unmarked) [Propranolol, reference compound] | – | – | – | – | – | inhibition in vivo at 1 mg/kg [1]: 11.8 ± 1.1%
